Results: patent publication US12497610B2, “Functional genomics using CRISPR-CAS systems for saturating mutagenesis of non-coding elements, compositions, methods, libraries and applications thereof” (THE BROAD INSTITUTE, INC., priority 2015, dated 2025)

Legend:
YY1 = assay: ChIP-ddPCR for YY1; type: cell-based, human; conditions: ChIP-ddPCR around cut site vs non-targeting sgRNA
Protocol: Chromatin Immunoprecipitation (ChIP) for Histone Modifications and Transcription Factors
After 7 days of puromycin selection, A375 cells transduced with individual lentiCRISPRv2 sgRNAs were plated in T-225 flasks and grown to 70-90% confluence (6 days). At this point, chromatin fixation was initiated by adding formaldehyde directly to the growth media (final concentration 1%) and incubating at 37° C. for 10 minutes. The entire two-day ChIP procedure was performed using the Magna ChIP HiSens Chromatin Immunoprecipitation Kit (Millipore 1710460), as specified in the manufacturer's protocol. […]
Using BatchPrimer3, Applicants designed primers centered on the sgRNA target site with a target amplicon size of 80-120 bp (see table S4 for ChIP-ddPCR primers). Droplet digital PCR (ddPCR) reactions using EvaGreen (BioRad 1864034) were used to quantify changes between input, histone/TF ChIP, and IgG ChIP samples for A375 cells transduced with specific sgRNAs and untransduced A375 cells. […] Applicants calculated the percent change in ChIP signal after genome editing by normalizing each ChIP sample to its corresponding input sample and then comparing the normalized ChIP between A375s transduced with specific sgRNAs and untransduced (control) A375 cells.

CUL3 = assay: ddPCR quantification of CUL3 expression in A375 cells transduced with individual sgRNAs; type: cell-based, human; conditions: A375, relative to non-targeting sgRNAs; result in words
Source text: Array Validation of Primary Screen Hits
For individual (array) validation of noncoding sgRNAs, Applicants first identified sgRNAs enriched in the top 5% of the library as given by the normalized log 2(Vemu/DMSO) read ratio. In order to have high confidence in these sgRNAs, Applicants used the minimum of the two infection replicates for the normalized log2 (Vemu/DMSO) read ratio. […] This ensures that putative noncoding functional elements were supported by the presence of at least 2 enriched sgRNAs. From this group, Applicants picked 25 sgRNAs distributed across different genomic regions for individual validation (see table S2 for a list of sgRNA sequences). Applicants also included 3 exon-targeting and 3 non-targeting sgRNAs to serve as positive and negative controls, respectively.
For each sgRNA, standard desalted short oligonucleotides (Integrated DNA Technologies) were annealed, phosphorylated and cloned into a lentiviral vector (lentiCRISPRv2, Addgene 52961) that contained Cas9 and an sgRNA cassette. For each sgRNA, A375 cells were transduced with lentiviral supernatants. After 24 hours, media was replaced with R10 with 1 ug/mL of puromycin. Viral volumes were titered such that 20-40% of cells survived after puromycin selection. After selection and expansion for 7 days in puromycin, cell were plated for DNA/RNA extraction, vemurafenib resistance, or ChIP assays.
RNA Extraction and ddPCR Quantification of CUL3 Expression
After 7 days of puromycin selection, A375 cells transduced with individual lentiCRISPRv2 sgRNAs were plated in 3 replicate wells (2×10^3 cells/well) in 96-well plates. After 4 days (70-90% confluent), RNA was extracted using a homemade version of a rapid lysis kit for quantitative PCR (similar to commercial “Cells-to-Ct”-style kits). This procedure (detailed below) enables rapid RNA extraction and qPCR/ddPCR readout from 96-well plates with minimal hands-on time.
Cells were first washed in 100 ul of chilled phosphate-buffered saline (PBS). Then, cells were incubated at room temperature for 8 minutes in 50 ul of Complete Lysis Buffer. The Complete Lysis Buffer consists of the Base Lysis Buffer with freshly added 100 ug/ml Proteinase K (Sigma P2308) and 300 U/mL DNase I (Sigma D2821). When adding DNase I, it is important to not vortex but mix only by gentle pipetting. The Base Lysis Buffer is made in RNAse-free water (ThermoFisher Scientific 10977015) with 10 mM Tris pH8 (Ambion AM9856), 0.5 mM MgCl2 (Sigma M1028), 0.44 mM CaCl2 (Sigma 21115), 10 uM DTT (Sigma 43816), 0.1% Triton X-114 (Calbiochem 648468), and 1.73 mN HCl (Sigma 318965) and should have a final pH of 7.8. The Base Lysis Buffer is stable at 4° C. for up to 6 months.
After the 8-minute incubation in Complete Lysis Buffer, 30 ul of the cell lysis was added to new PCR plates containing 3 ul of STOP buffer in each well to stop the lysis reaction. The STOP buffer is made in RNAse-free water with 1 mM Proteinase K inhibitor AAPF N-(Methoxysuccinyl)-Ala-Ala-Pro-Phe-chloromethyl ketone (SEQ ID NO: 174) (Millipore 539470), 90 mM EDTA (ThermoFisher Scientific 15575020), and 113 uM DTT (Sigma 43816). The final pH of the STOP buffer should be 8, adjusted appropriately with HCl and KOH. The STOP buffer is stable for up to 6 months at 20° C. The lysis reaction was mixed with the STOP buffer by pipetting up and down 5 times. Applicants then incubated the lysis and STOP buffer for at least 2 minutes but not more than 20 minutes. (Extra stopped lysis can be stored at −80° C. for up to 5 months.)
Applicants transferred 5 ul of the stopped lysis to new PCR plates with 20 ul of RT master mix. The RT master mix is from the RevertAid Reverse Transcriptase kit (ThermoFisher Scientific K1691) and is as described in the manufacturer's protocol but with an added oligo-dT primer. […]

[1] = test system: human BCL11A erythroid enhancer; assay: Tiled pooled CRISPR-Cas9 screen for in situ functional mapping of the human BCL11A erythroid enhancer (HbF-high/HbF-low sort, sgRNA deep sequencing); type: cell-based; conditions: for Enrichment Score: HbF enrichment, human library NGG and NGG RC sgRNAs filtered for enrichment score >0.259; for Dropout Score: human library sgRNAs that produced HbF enrichment over 0.259
Method in brief: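 HUDEP-2 cells stably expressing Cas9 transduced at low multiplicity with tiled sgRNA library covering +55/+58/+62 DHS, selected with blasticidin/puromycin, expanded one week then differentiated one week. Top and bottom 10% HbF-stained cells FACS-sorted; sgRNA representation determined by deep sequencing of genomic DNA.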

Substance: 5′-UTR sg1: validation sgRNA AGGAGGAGGAGGACGACGTT, SEQ ID NO 457, 5′ UTR (expressed or natural sequence)
- decrease of YY1 binding (YY1): 26%
- CUL3 expression (CUL3): significantly decrease

Substance: BCL_00239_H_D62 (guide GCCTGTAATCTCAGCTACTCNGG; listed as DNA, chemistry not given here)
- Enrichment Score [1]: 1.916
- Dropout Score [1]: −6.031

Substance: BCL_00065_H_D55 (guide GCCAACAGTGATAACCAGCANGG; listed as DNA, chemistry not given here)
- Enrichment Score [1]: 0.4886
- Dropout Score [1]: −0.5415

Substance: BCL_01788_H_D62 (guide GAGATTTACTCTTGTTGCCCNGGRC; listed as DNA, chemistry not given here)
- Enrichment Score [1]: 1.29
- Dropout Score [1]: −5.463

Substance: BCL_02005_H_exon2 (guide GTTCATCTGGCACTGCCCACNGGRC; listed as DNA, chemistry not given here)
- Enrichment Score [1]: 3.202
- Dropout Score [1]: −1.837

Substance: BCL_01497_H_D55 (guide AAGAGGCCACTGAGTCCTTTNGGRC; listed as DNA, chemistry not given here)
- Enrichment Score [1]: 0.43
- Dropout Score [1]: 0.4562

Substance: BCL_01799_H_D62 (guide CTCAGGTGATCCTCCTGCCCNGGRC; listed as DNA, chemistry not given here)
- Enrichment Score [1]: 0.9108
- Dropout Score [1]: −9.478

Substance: BCL_02004_H_exon2 (guide CCCCCAATGGGAAGTTCATCNGGRC; listed as DNA, chemistry not given here)
- Enrichment Score [1]: 0.4685
- Dropout Score [1]: −0.1189

Substance: BCL_00248_H_exon2 (guide ACAGATGATGAACCAGACCANGG; listed as DNA, chemistry not given here)
- Enrichment Score [1]: 1.609
- Dropout Score [1]: −2.532

Substance: BCL_01684_H_D58 (guide ACAACCTCCTTGTTTACAGANGGRC; listed as DNA, chemistry not given here)
- Enrichment Score [1]: 0.4945
- Dropout Score [1]: 0.3674

Substance: BCL_01994_H_exon2 (guide GATGCCAACCTCCACGGGATNGGRC; listed as DNA, chemistry not given here)
- Enrichment Score [1]: 1.11
- Dropout Score [1]: −0.9904

Substance: BCL_00265_H_exon2 (guide GCATCCAATCCCGTGGAGGTNGG; listed as DNA, chemistry not given here)
- Enrichment Score [1]: 1.291
- Dropout Score [1]: −0.8895

Substance: BCL_02002_H_exon2 (guide AAAATAAGAATGTCCCCCAANGGRC; listed as DNA, chemistry not given here)
- Enrichment Score [1]: 0.505
- Dropout Score [1]: −0.4259

Substance: BCL_01998_H_exon2 (guide TTTCATCTCGATTGGTGAAGNGGRC; listed as DNA, chemistry not given here)
- Enrichment Score [1]: 0.3489
- Dropout Score [1]: −0.1426

Substance: BCL_01801_H_D62 (guide CCCCGGCCTCCCAAAGTGCTNGGRC; listed as DNA, chemistry not given here)
- Enrichment Score [1]: 0.6113
- Dropout Score [1]: −8.0566

Substance: BCL_00088_H_D55 (guide GCATCATCCTGGTACCAGGANGG; listed as DNA, chemistry not given here)
- Enrichment Score [1]: 0.4386
- Dropout Score [1]: −0.3713

Substance: BCL_01790_H_D62 (guide TTGCCCGGGCTGGAATGCAANGGRC; listed as DNA, chemistry not given here)
- Enrichment Score [1]: 0.4673
- Dropout Score [1]: −8.123

Substance: BCL_02001_H_exon2 (guide CCACAGCTTTTTCTAAGCAGNGGRC; listed as DNA, chemistry not given here)
- Enrichment Score [1]: 0.4913
- Dropout Score [1]: −0.2495

Substance: BCL_01631_H_D58 (guide ATTAGGGTGGGGGCGTGGGTNGGRC; listed as DNA, chemistry not given here)
- Enrichment Score [1]: 0.4098
- Dropout Score [1]: −0.1615

Substance: BCL_01450_H_D55 (guide TGCTTGGTCGGCACTGATAGNGGRC; listed as DNA, chemistry not given here)
- Enrichment Score [1]: 1.578
- Dropout Score [1]: −0.3195

Substance: BCL_00012_H_D55 (guide AAGTGAGCCAGGTGATAGAANGG; listed as DNA, chemistry not given here)
- Enrichment Score [1]: 0.3511
- Dropout Score [1]: −0.01983

Substance: BCL_02010_H_exon2 (guide CCCCTTCTGGAGCTCCCAACNGGRC; listed as DNA, chemistry not given here)
- Enrichment Score [1]: 0.5003
- Dropout Score [1]: −0.1463

Substance: BCL_00256_H_exon2 (guide GTGCCAGATGAACTTCCCATNGG; listed as DNA, chemistry not given here)
- Enrichment Score [1]: 1.89
- Dropout Score [1]: −1.764

Substance: BCL_00251_H_exon2 (guide GGCCCGTTGGGAGCTCCAGANGG; listed as DNA, chemistry not given here)
- Enrichment Score [1]: 1.911
- Dropout Score [1]: −1.236
